Holding throughout (experiment): kinome screen (33PanQinase)
Assay type in all cases: biochemical

The target in assay [1] is T1, EPHB4 (Homo sapiens, UniProt P54760).
T1 construct: purchased Reaction Biology Europe GmbH (formerly ProQinase)
T1 sequence (P54760 16-987): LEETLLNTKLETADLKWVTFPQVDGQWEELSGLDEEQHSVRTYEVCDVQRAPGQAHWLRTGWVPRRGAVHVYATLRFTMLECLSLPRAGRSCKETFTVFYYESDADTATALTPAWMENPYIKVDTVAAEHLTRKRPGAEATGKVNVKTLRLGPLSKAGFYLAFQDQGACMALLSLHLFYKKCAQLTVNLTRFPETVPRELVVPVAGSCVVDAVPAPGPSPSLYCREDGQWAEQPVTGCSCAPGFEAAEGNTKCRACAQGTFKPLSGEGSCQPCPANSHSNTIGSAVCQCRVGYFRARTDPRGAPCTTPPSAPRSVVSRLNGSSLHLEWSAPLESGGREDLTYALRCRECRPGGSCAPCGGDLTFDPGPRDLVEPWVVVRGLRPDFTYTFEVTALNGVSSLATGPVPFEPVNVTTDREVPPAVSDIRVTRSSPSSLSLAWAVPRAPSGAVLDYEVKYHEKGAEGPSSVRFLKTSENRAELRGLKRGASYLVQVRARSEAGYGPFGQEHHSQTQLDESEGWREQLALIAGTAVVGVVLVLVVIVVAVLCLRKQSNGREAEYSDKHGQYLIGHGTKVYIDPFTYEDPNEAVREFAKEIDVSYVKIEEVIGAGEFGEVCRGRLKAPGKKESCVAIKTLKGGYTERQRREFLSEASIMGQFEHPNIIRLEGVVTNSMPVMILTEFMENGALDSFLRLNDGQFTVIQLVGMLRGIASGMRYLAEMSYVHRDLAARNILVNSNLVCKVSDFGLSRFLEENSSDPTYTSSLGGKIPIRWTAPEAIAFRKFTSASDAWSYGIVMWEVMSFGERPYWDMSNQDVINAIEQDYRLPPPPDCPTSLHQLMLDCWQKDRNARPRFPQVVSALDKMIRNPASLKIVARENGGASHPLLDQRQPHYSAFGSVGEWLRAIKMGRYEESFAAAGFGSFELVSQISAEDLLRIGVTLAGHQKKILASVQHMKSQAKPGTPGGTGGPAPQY
On the procedure: (§1) The Kinome Screening was performed by Reaction Biology Europe GmbH (http://reactionbiology.com; Freiburg i. Br., Germany).

Assay [2] addresses T2, TGFBR1 (Homo sapiens, UniProt P36897).
T2 construct: purchased Reaction Biology Europe GmbH (formerly ProQinase)
T2 sequence (P36897 34-503): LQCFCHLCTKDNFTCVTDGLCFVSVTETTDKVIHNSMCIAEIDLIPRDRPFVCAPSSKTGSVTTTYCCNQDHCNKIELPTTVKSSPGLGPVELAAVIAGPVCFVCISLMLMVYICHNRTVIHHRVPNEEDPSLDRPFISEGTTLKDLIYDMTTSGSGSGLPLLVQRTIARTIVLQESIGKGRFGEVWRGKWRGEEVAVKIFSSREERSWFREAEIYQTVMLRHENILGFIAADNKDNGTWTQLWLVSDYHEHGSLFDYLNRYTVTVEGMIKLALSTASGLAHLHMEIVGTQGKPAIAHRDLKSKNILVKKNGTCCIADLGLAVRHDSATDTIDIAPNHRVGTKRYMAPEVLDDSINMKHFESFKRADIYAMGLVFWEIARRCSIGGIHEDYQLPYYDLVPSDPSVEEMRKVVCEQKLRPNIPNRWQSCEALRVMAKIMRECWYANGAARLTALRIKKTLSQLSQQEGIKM
Here is the method: as §1

For assay [3], the target named is T3, CHK2 (Homo sapiens, UniProt O96017).
T3 construct: purchased Reaction Biology Europe GmbH (formerly ProQinase)
Here is the method:
as §1

The target in assay [4] is T4, PDK1 (Homo sapiens, UniProt O15530).
T4 construct: purchased Reaction Biology Europe GmbH (formerly ProQinase)
T4 sequence (O15530 1-556): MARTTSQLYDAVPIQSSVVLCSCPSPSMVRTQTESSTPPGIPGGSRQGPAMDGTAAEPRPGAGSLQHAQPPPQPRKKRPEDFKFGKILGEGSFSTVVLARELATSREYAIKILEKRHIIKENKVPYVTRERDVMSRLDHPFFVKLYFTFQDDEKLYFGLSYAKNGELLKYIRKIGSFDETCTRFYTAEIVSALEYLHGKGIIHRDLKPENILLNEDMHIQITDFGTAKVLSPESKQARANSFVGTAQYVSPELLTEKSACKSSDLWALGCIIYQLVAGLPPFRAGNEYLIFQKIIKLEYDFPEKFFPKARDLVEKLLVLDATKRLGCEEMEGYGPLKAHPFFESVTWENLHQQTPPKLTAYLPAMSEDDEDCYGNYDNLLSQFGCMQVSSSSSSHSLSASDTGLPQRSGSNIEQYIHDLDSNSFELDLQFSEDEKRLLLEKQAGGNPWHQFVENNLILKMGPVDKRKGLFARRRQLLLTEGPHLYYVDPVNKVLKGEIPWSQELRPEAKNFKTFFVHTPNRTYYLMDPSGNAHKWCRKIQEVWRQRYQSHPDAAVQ
On the procedure: as §1

For assay [5], the target named is T5, ACVR1 (Homo sapiens, UniProt Q04771).
T5 construct: purchased Reaction Biology Europe GmbH (formerly ProQinase)
T5 sequence (Q04771 21-509): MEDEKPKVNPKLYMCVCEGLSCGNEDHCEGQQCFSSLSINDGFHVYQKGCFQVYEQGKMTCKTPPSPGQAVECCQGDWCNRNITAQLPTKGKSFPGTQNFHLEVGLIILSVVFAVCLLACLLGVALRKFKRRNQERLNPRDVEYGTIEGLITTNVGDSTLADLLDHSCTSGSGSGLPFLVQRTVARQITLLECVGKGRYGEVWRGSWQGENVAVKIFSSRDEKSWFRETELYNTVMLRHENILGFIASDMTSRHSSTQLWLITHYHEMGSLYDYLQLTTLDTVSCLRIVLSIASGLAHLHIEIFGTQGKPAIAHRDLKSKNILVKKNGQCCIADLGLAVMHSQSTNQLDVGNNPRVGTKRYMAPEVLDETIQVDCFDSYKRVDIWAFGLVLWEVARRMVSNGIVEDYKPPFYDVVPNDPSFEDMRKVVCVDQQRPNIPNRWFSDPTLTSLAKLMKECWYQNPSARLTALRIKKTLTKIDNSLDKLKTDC
Here is the method:
as §1

T3 sequence (O96017 whole entry): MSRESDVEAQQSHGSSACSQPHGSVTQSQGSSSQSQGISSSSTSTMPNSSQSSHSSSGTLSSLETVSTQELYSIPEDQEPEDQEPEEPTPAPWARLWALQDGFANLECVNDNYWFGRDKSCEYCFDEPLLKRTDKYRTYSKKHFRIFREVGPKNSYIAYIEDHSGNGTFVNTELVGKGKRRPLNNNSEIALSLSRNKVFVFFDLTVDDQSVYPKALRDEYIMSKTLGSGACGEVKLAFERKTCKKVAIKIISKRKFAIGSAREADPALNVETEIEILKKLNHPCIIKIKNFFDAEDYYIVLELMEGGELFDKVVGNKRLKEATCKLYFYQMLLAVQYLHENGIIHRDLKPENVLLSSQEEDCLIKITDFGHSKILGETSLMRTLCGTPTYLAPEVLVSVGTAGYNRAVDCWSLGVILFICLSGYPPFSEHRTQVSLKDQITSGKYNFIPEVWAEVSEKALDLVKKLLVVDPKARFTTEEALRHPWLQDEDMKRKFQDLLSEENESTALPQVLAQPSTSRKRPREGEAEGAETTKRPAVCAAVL

As to `COc1ccnc2[nH]cc(-c3cc(N)nc(N)c3)c12` [meriolin 16], the residual kinase activity in assay [1] (0.03 µM) is listed as 97 % of control; in assay [1] (0.3 µM), 90 % of control; in assay [2] (0.03 µM), 65 % of control; in assay [2] (0.3 µM) it was 67 % of control; in assay [3] (0.03 µM) it was 90 % of control; in assay [3] (0.3 µM), 82 % of control. In addition, the residual kinase activity in assay [4] (0.03 µM) was 98 % of control; in assay [4] (0.3 µM) it was 83 % of control; in assay [5] (0.03 µM), 89 % of control; in assay [5] (0.3 µM), 72 % of control.
Consider `c1ccc(CNc2cc(-c3c[nH]c4ncccc34)ccn2)cc1` [meriolin 36], for which the residual kinase activity in assay [1] (0.3 µM) is 110 % of control; in assay [1] (3 µM) it was 85 % of control; in assay [2] (0.3 µM), 18 % of control; in assay [2] (3 µM), 0 % of control; in assay [3] (0.3 µM), 81 % of control; in assay [3] (3 µM) it was 41 % of control. The residual kinase activity is on record as 160 % of control in assay [4] (0.3 µM), 39 % of control in assay [4] (3 µM), 24 % of control in assay [5] (0.3 µM) and 1 % of control in assay [5] (3 µM).

The record behind these values is publication PMC11167047 (Cell Death Discovery, 2024).
